Results from patent US11253593B2, “Granulated anthelmintic preparations and delivery systems” (Argenta Innovation Limited, priority 2009, dated 2022).
Read-outs that look alike come from different tables or passages of the source.

Legend:
in vivo = test: in vivo
Protocol: A cross-over study was performed to determine the blood plasma concentrations of abamectin, oxfendazole and levamisole following oral treatment with reconstituted granule product containing these three anthelmintics.
Eight female romney sheep of similar age and body weight were used. The criteria for selection was to include animals that had not been dosed with a persistent anthelmintic formulation within 6 months of selection for the trial. Persistent anthelmintics include slow release capsules (e.g. Bionic), injectable or oral forms of moxidectin and closantel. Sheep were acclimated to the study site for 14 days before treatment.
Each sheep was randomly assigned to the treatment group and received one treatment and then the alternate treatment 21 days later.
The study procedures were as follows: • sheep were weighed using calibrated scales on Day −1 for weight ranking and allocation to treatment groups. […] Granules were weighed and added with the calculated volume of water to a 2 litre schott bottle and inverted a number of times until the granules were wetted and fully dispersed. On the morning of treatment the schott bottle was again gently inverted 3 or 4 times to ensure a homogeneous mix and approximately 100 mL was decanted from which the syringe was filled for dosing. • Treatments were administered on Day 0 and Day 21 at a dose volume of 1 ml/5 kg. Dosing was done using a 12 mL graduated syringe. Dose volume and time of administration was recorded and checked for each sheep. • Blood samples were collected before treatment, and after treatment at 0.5, 1, 2, 6, 8, 12, 15, 24 and 36 hrs.
Oxfendazole plasma levels are presented as two separate plasma metabolites: oxfendazole and fenbendazole, and the total of these two expressed as “total-oxfendazole”. All plasma metabolite units are presented as mg/kg

[1] = In-use suspendability of reconstituted granule (oxfendazole as marker); type: physicochemical; conditions: reconstituted granule of 4.1 in water 1.1 kg/5 L
Protocol: The concentration of the reconstituted granule in water was 1.1 kg/5 L. Oxfendazole was chosen as a marker compound for drug suspension stability.
(Levamisole Fully Soluble)
2 h: At the top was 96 mg/g and at the bottom was 105.2 mg/g
4 h: At the top was 98 mg/g and at the bottom was 99 mg/g
4 days: At the top was 95.7 mg/g and at the bottom was 98 mg/g

[2] = In-use stability, physico-chemical, of reconstituted dual active drug product; conditions: reconstituted drug product of 4.1; storage at 30 and 40° C. for 1 month
[3] = Chemical and physical stability of abamectin in reconstituted triple active formulation; type: physicochemical; conditions: reconstituted with water, triple active formulation 6.1; storage at 30 and 40° C. for 1 month
[4] = Stability trial post mix of reconstituted abamectin liquid concentrate; type: physicochemical
Protocol: The stability of the reconstituted abamectin was investigated after storage at 20-25° C. for 4 days.

[5] = female, Romney, sheep, in vivo, po
[6] = oral 1 ml/5 kg, pooled mean of 8 sheep, oxfendazole comparison
[7] = oral 1 ml/5 kg, pooled mean of 8 sheep, total oxfendazole comparison

Compound: COC(=O)Nc1nc2ccc(Sc3ccccc3)cc2[nH]1 [fenbendazole]
- Tmax, plasma fenbendazole (metabolite) (in vivo; [5]): 12 h
- Cmax, plasma fenbendazole (metabolite) (in vivo; sheep, in vivo, po): 0.209 mg/kg

Compound: COC(=O)Nc1nc2cc([S+]([O-])c3ccccc3)ccc2[nH]1 (stereo not shown) [oxfendazole]
- Oxfendazole concentration at the bottom ([1]; 2 h): 105.2 mg/g
- Oxfendazole concentration at the top ([1]; 2 h): 96 mg/g
- Oxfendazole concentration at the bottom ([1]; 4 h): 99 mg/g
- Oxfendazole concentration at the top ([1]; 4 h): 98 mg/g
- Oxfendazole concentration at the bottom ([1]; 4 days): 98 mg/g
- Oxfendazole concentration at the top ([1]; 4 days): 95.7 mg/g
- Oxfendazole concentration, initial ([1]; initial): 100 mg/g
- Chemical degradation [2]: no chemical degradation
- Cmax, plasma oxfendazole (in vivo; [6]): 0.792 mg/kg
- Tmax, plasma oxfendazole (in vivo; [6]): 15 h
- Cmax, plasma total oxfendazole (oxfendazole + fenbendazole) (in vivo; [7]): 0.984 mg/kg
- Tmax, plasma total oxfendazole (oxfendazole + fenbendazole) (in vivo; [7]): 12 h

Compound: abamectin
- Degradation of abamectin [3]: less than 2%
- Tmax, plasma abamectin (in vivo; oral 1 ml/5 kg, pooled mean of 8 sheep, abamectin comparison): 24 h
- Cmax, plasma abamectin (in vivo; oral 1 ml/5 kg, pooled mean of 8 sheep, both cross-over phases, abamectin comparison): 0.017 mg/kg
- Degradation after reconstitution ([4]; reconstituted liquid concentrate of Example 9, storage at 20-25° C. for 4 days): no degradation

Compound: OCc1ccccc1 [benzyl alcohol]
- Degradation after reconstitution [4]: some degradation

Compound: c1ccc([C@H]2CN3CCSC3=N2)cc1 [levamisole]
- Chemical degradation [2]: less than 2%
- Tmax (in vivo; [5]): 1 h
- Cmax, plasma levamisole (in vivo; sheep, in vivo, po): 1.445 mg/kg
